# According to patent US6399542B1, “Alkoxyimino-substituted bicyclic compounds compositions containing the same and method of making such compounds” (Agro-Kanesho Co., Ltd., priority 1997, dated 2002):
# Tested on: Puccinia recondita
# Test: Effect on Wheat brown rust (preventive spray test)
# Format: in vivo
# Details: conc. of active ingredient 4 ppm, 7 days after inoculation
row,Structure (SMILES),Preventive rate (%)
1,CON=C(C(=O)OC)c1ccccc1COc1ccc2c(c1C)OCCC2=NOCC#N [c-48],100
2,CNC(=O)C(=NOC)c1ccccc1COc1ccc2c(c1C)OCCC2=NOCC#N [c-49],91
3,CON=C(C(=O)OC)c1ccccc1COc1ccc2c(c1C)OCCC2=NOCC=CCl [c-61],99
4,CNC(=O)C(=NOC)c1ccccc1COc1ccc2c(c1C)OCCC2=NOCC=C(C)C [c-67],100
5,CNC(=O)C(=NOC)c1ccccc1COc1ccc2c(c1C)OCCC2=NOCc1ccc(Cl)c(Cl)c1 [c-79],97
6,CNC(=O)C(=NOC)c1ccccc1COc1ccc2c(c1C)OCCC2=NOCc1cccc(F)c1 [c-81],98
7,CNC(=O)C(=NOC)c1ccccc1COc1ccc2c(c1C)OCCC2=NOCc1cccc2ccccc12 [c-89],96

# Same assay, conditions: conc. of active ingredient 20 ppm, 7 days after inoculation
row,Structure (SMILES),Preventive rate (%)
1,CNC(=O)C(OC)c1ccccc1COc1ccc2c(c1)OCCC2=NOC (racemic) [c-11],93
2,CO/N=C(/C(=O)OC)c1ccccc1COc1ccc2c(c1C)OCC2=NOCc1ccccc1 [a-72],100
3,CCCCON=C1CCOc2c1ccc(OCc1ccccc1C(=NOC)C(=O)NC)c2C [c-43],93
4,CON=C(C(=O)OC)c1ccccc1COc1ccc2c(c1C)OCCC2=NOCC#N [c-48],100
5,CNC(=O)C(=NOC)c1ccccc1COc1ccc2c(c1C)OCCC2=NOCC#N [c-49],93
6,CON=C(C(=O)OC)c1ccccc1COc1ccc2c(c1C)OCCC2=NOC(C)(C)C [c-52],93
7,CON=C(C(=O)OC)c1ccccc1COc1ccc2c(c1C)OCCC2=NOCC=CCl [c-61],100
8,CON=C(C(=O)OC)c1ccccc1COc1ccc2c(c1)OCCC2=NOCC=CCl [c-63],99
9,CNC(=O)C(=NOC)c1ccccc1COc1ccc2c(c1C)OCCC2=NOCC=C(C)C [c-67],100
10,CON=C(C(=O)OC)c1ccccc1COc1ccc2c(c1C)OCCC2=NOCc1ccc(Cl)c(Cl)c1 [c-78],96
11,CNC(=O)C(=NOC)c1ccccc1COc1ccc2c(c1C)OCCC2=NOCc1ccc(Cl)c(Cl)c1 [c-79],100
12,CON=C(C(=O)OC)c1ccccc1COc1ccc2c(c1C)OCCC2=NOCc1cccc(F)c1 [c-80],98
13,CNC(=O)C(=NOC)c1ccccc1COc1ccc2c(c1C)OCCC2=NOCc1cccc(F)c1 [c-81],99
14,CON=C(C(=O)OC)c1ccccc1COc1ccc2c(c1C)OCCC2=NOCc1c(F)c(F)c(F)c(F)c1F [c-82],96
15,CNC(=O)C(=NOC)c1ccccc1COc1ccc2c(c1C)OCCC2=NOCc1cccc2ccccc12 [c-89],100
16,CON=C1CCc2cc(OCc3ccccc3C(=NOC)C(=O)OC)ccc21 [e-4],98

# Same assay, conditions: conc. of active ingredient 100 ppm, 7 days after inoculation
row,Structure (SMILES),Preventive rate (%)
1,CNC(=O)C(OC)c1ccccc1COc1ccc2c(c1)OCCC2=NOC (racemic) [c-11],99
2,CO/N=C(/C(=O)OC)c1ccccc1COc1ccc2c(c1C)OCC2=NOCc1ccccc1 [a-72],100
3,CON=C(C(=O)OC)c1ccccc1COc1ccc2c(c1C)OCCC2=NOCC#N [c-48],100
4,CNC(=O)C(=NOC)c1ccccc1COc1ccc2c(c1C)OCCC2=NOCC#N [c-49],94
5,CON=C(C(=O)OC)c1ccccc1COc1ccc2c(c1C)OCCC2=NOC(C)(C)C [c-52],100
6,CON=C(C(=O)OC)c1ccccc1COc1ccc2c(c1C)OCCC2=NOCC=CCl [c-61],100
7,CON=C(C(=O)OC)c1ccccc1COc1ccc2c(c1)OCCC2=NOCC=CCl [c-63],100
8,CNC(=O)C(=NOC)c1ccccc1COc1ccc2c(c1C)OCCC2=NOCC=C(C)C [c-67],100
9,CON=C(C(=O)OC)c1ccccc1COc1ccc2c(c1C)OCCC2=NOCc1ccc(Cl)c(Cl)c1 [c-78],100
10,CNC(=O)C(=NOC)c1ccccc1COc1ccc2c(c1C)OCCC2=NOCc1ccc(Cl)c(Cl)c1 [c-79],100
11,CON=C(C(=O)OC)c1ccccc1COc1ccc2c(c1C)OCCC2=NOCc1cccc(F)c1 [c-80],100
12,CNC(=O)C(=NOC)c1ccccc1COc1ccc2c(c1C)OCCC2=NOCc1cccc(F)c1 [c-81],100
13,CON=C(C(=O)OC)c1ccccc1COc1ccc2c(c1C)OCCC2=NOCc1c(F)c(F)c(F)c(F)c1F [c-82],100
14,CNC(=O)C(=NOC)c1ccccc1COc1ccc2c(c1C)OCCC2=NOCc1cccc2ccccc12 [c-89],100

# Tested on: Erysiphe graminis
# Test: Effects on Barley powdery mildew (preventive spray test)
# Format: in vivo
# Details: conc. of active ingredient 20 ppm, lesions counted seven days after inoculation
row,Structure (SMILES),Preventive rate (%)
1,"CCc1cc2c(cc1OCc1ccccc1/C(=N\OC)C(=O)NC)OCC2=NOC (single isomer, unassigned) [a-31]",99
2,CNC(=O)C(=NOC)c1ccccc1COc1ccc2c(c1C)OCCC2=NOCC=C(C)C [c-67],100
3,CNC(=O)C(=NOC)c1ccccc1COc1ccc2c(c1C)OCCC2=NOCc1ccc(Cl)c(Cl)c1 [c-79],100
4,CNC(=O)C(=NOC)c1ccccc1COc1ccc2c(c1C)OCCC2=NOCc1cccc(F)c1 [c-81],98
5,CON=C(C(=O)OC)c1ccccc1COc1ccc2c(c1C)OCCC2=NOCc1c(F)c(F)c(F)c(F)c1F [c-82],86
6,CNC(=O)C(=NOC)c1ccccc1COc1ccc2c(c1C)OCCC2=NOCc1cccc2ccccc12 [c-89],92

# Same assay, conditions: conc. of active ingredient 100 ppm, lesions counted seven days after inoculation
row,Structure (SMILES),Preventive rate (%)
1,"CCc1cc2c(cc1OCc1ccccc1/C(=N\OC)C(=O)NC)OCC2=NOC (single isomer, unassigned) [a-31]",100
2,CNC(=O)C(=NOC)c1ccccc1COc1ccc2c(c1C)OCCC2=NOCC=C(C)C [c-67],100
3,CNC(=O)C(=NOC)c1ccccc1COc1ccc2c(c1C)OCCC2=NOCc1ccc(Cl)c(Cl)c1 [c-79],100
4,CNC(=O)C(=NOC)c1ccccc1COc1ccc2c(c1C)OCCC2=NOCc1cccc(F)c1 [c-81],98
5,CON=C(C(=O)OC)c1ccccc1COc1ccc2c(c1C)OCCC2=NOCc1c(F)c(F)c(F)c(F)c1F [c-82],100
6,CNC(=O)C(=NOC)c1ccccc1COc1ccc2c(c1C)OCCC2=NOCc1cccc2ccccc12 [c-89],98
